In ChEMBL document CHEMBL1201862, “PubChem BioAssay data set” (2004):
Activity calls are given as the source filed them.

Key:
[1] = NIH-3T3 fibroblast cytotoxicity, dose response, cytotoxicity control, cell-based, fluorescence, Alamar Blue, secondary assay (AID 2327); format: functional;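 further: NIH-3T3 mouse fibroblasts cultured with fluconazole at 8 µg/mL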
[2] = luciferase reporter signal reduction – luminescence, H4-C neuroglioblastoma cells, dose response (AID 2458); format: functional, cell-based;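 further: H4 neuroglioblastoma cells stably carrying a luciferase reporter gene fusion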
cells = format: functional, cell-based
[3] = Luminescence Cell-Based Dose Response HTS to Identify Inhibitors of 5'UTR Stem-Loop Driven Prion Protein mRNA Translation in H4 Neuroglioblastoma Cells. [Related pubchem assays: 1827 (Project Summary), 1813 (Primary HTS)]; format: functional
Vero [4] = assay: host cell cytotoxicity of antiviral hits, dose response, cytotoxicity control for West Nile virus antiviral project, secondary assay (AID 1650); format: functional; conditions: Chlorocebus sabaeus
[5] = inhibitors of SNCA 5'UTR-driven reporter translation, confirmation, H4 neuroglioma cells, luminescence (AID 1988); format: functional, cell-based
[6] = C. albicans growth with fluconazole, confirmation, fluorescence, retest (AID 2467); format: functional, cell-based
[7] = microbe, parasite or virus in culture; format: functional; conditions: Mycobacterium tuberculosis
[8] = inhibitors of SNCA 5'UTR-driven translation, confirmation, luminescence, H4 neuroglioblastoma cells, dose confirmation (AID 2454); format: functional, cell-based;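 further: H4 neuroglioblastoma cells carrying an alpha-synuclein 5'UTR luciferase reporter; potency for inhibition of the luciferase signal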
Jurkat = assay: antigen receptor-induced NF-kB inhibitors, dose response, Jurkat, luciferase reporter, luminescence, B- and T-cell (AID 489004); format: functional, cell-based; conditions: Homo sapiens;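 further: NF-kB luciferase reporter Jurkat cells stimulated with PMA plus ionomycin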
[9] = target: Cyclin-dependent kinase 5/CDK5 activator 1 (Homo sapiens, UniProt Q00535); assay: CDK5/p35 kinase inhibitors, dose response, biochemical, cherry-picked samples, set 2 (AID 504545)
[10] = cytotoxicity in HEK-293T NF-kB-Luc cells, dose response, cytotoxicity control for B/T-cell NF-kB inhibitor project, cell-based, uHTS hits (AID 489019); format: functional;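 further: IC50 reflects cytotoxicity as loss of cell viability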
Vero [11] = assay: cells; format: functional, cell-based; conditions: Chlorocebus sabaeus
[12] = target: Dual specificity tyrosine-phosphorylation-regulated kinase 1A (Rattus norvegicus, UniProt Q63470); format: biochemical, Homo sapiens
[13] = Shn3 3'UTR reporter inhibitors, dose response, cell-based, Clone20 osteoblasts, firefly luciferase, cherry-picked (AID 624132); format: functional;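 further: firefly luciferase luminescence from reporter carrying the Shn3 3'UTR in osteoblasts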
[14] = control 3'UTR Renilla luciferase suppression, dose response, counter-screen for Shn3 inhibitor project, cell-based, Clone20-Shn3RL, cherry-picked (AID 624133); format: functional
[15] = cytotoxicity in HPDE-C7 cells, cell-based, fluorescence, HTS (AID 430); format: functional; conditions: Homo sapiens
[16] = cytotoxicity in KRAS-transformed pancreatic duct cells, primary screen, cell-based, fluorescence, HTS (AID 431); format: functional; conditions: Homo sapiens;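 further: cell line used: HPDE-C7K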
Estrogen receptor beta = Estrogen receptor beta (Homo sapiens, UniProt Q92731); assay: ERβ–SRC-3 coactivator interaction inhibitors, confirmation, orthogonal assay, biochemical, ELISA, streptavidin-HRP readout (AID 1060)
[17] = target: Dual specificity protein phosphatase 6 (Rattus norvegicus, UniProt Q64346); assay: MKP-3 phosphatase inhibitors, primary screen, biochemical, rat enzyme, in vitro (AID 425)
[18] = Artemis endonuclease inhibitor potency, dose response, biochemical, fluorescence intensity (AID 720701); format: functional;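 further: Artemis endonuclease enzyme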
Protein Tat = Protein Tat (Human immunodeficiency virus type 1 group M subtype B (isolate HXB2)(HIV-1), UniProt P04608); format: functional;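 further: tat binding to TAR RNA read out by fluorescence polarization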
[19] = THP-1 cell cytotoxicity, dose response, cytotoxicity control for Vif-APOBEC3G degradation inhibitor project, THP-1 cells (AID 1117359); format: functional; conditions: Human immunodeficiency virus 1, THP-1
[20] = inhibitors of Vif binding to APOBEC3G peptide, primary screen, biochemical, TR-FRET, GST-Vif 1-94, biotin-A3G peptide, dose response retest (AID 1117319); format: functional;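 further: TR-FRET signal of purified GST-Vif binding a biotinylated A3G peptide; inhibitors lower the FRET signal by blocking Vif and A3G binding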
[21] = target: 5-hydroxytryptamine receptor 1A (Homo sapiens, UniProt P08908); format: functional
[22] = Luminescence Cell-Based Dose Confirmation HTS to Identify Activators of 5'UTR Stem-Loop Driven Alpha-Synuclein mRNA Translation in H4 Neuroglioblastoma Cells. [Related pubchem assays: 1829 (Project Summary), 1814 (Primary HTS)]; format: functional
[23] = Luminescence Cell-Based Dose Response HTS to Identify Activators of Luciferase Translation or Activity in H4 […] Cells. [Related pubchem assays: 1829 (Project Summary), 1814 (Primary HTS)]; format: functional
H4 = assay: Luminescence Cell-Based Dose Response HTS to Identify Activators of 5'UTR Stem-Loop Driven Prion Protein mRNA Translation in H4 Neuroglioblastoma Cells. [Related pubchem assays: 1829 (Project Summary), 1814 (Primary HTS)]; format: functional; conditions: Homo sapiens
[24] = inhibitors of intracellular T. cruzi replication, confirmation, NIH3T3 host cells, beta-gal luminescence (AID 2044); format: functional, cell-based;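 further: intracellular parasites grown in NIH/3T3 mouse fibroblasts as host cells; luminescent beta-galactosidase reporter signal from transgenic T. cruzi replicating inside host cells; inhibitors lower the luminescence signal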
[25] = target: Peroxisome proliferator-activated receptor gamma/Nuclear receptor corepressor 2 (Homo sapiens, UniProt P37231+Q9Y618); assay: Counterscreen for NR2E3 inverse agonists: TR-FRET-based biochemical high throughput dose response assay to identify inverse agonists of the interaction between peroxisome proliferator-activated receptor gamma (PPARg) and nuclear receptor co-repressor 2 (NCOR2).; format: functional
[26] = target: Photoreceptor-specific nuclear receptor (Homo sapiens, UniProt Q9Y5X4); assay: NR2E3 inverse agonists, dose response, biochemical, TR-FRET (AID 463256); format: functional
[27] = cytotoxicity toward NIH3T3 fibroblasts, dose response, counter-screen, cell-based, ATP luminescence, mouse fibroblasts (AID 2010); format: functional;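 further: cells exposed to compound for about 90 hours before reading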
Nonstructural protein 1 = Nonstructural protein 1 (Influenza A virus, UniProt Q194T2); format: functional, Influenza A virus (A/California/07/2009(H1N1))
[28] = target: T1, Replicative DNA helicase DnaB (Mycobacterium tuberculosis, UniProt P9WMR3); assay: DnaB intein splicing inhibitors, dose response, biochemical, cell-free fluorescence (AID 449749); format: functional
T1 sequence (P9WMR3 whole entry): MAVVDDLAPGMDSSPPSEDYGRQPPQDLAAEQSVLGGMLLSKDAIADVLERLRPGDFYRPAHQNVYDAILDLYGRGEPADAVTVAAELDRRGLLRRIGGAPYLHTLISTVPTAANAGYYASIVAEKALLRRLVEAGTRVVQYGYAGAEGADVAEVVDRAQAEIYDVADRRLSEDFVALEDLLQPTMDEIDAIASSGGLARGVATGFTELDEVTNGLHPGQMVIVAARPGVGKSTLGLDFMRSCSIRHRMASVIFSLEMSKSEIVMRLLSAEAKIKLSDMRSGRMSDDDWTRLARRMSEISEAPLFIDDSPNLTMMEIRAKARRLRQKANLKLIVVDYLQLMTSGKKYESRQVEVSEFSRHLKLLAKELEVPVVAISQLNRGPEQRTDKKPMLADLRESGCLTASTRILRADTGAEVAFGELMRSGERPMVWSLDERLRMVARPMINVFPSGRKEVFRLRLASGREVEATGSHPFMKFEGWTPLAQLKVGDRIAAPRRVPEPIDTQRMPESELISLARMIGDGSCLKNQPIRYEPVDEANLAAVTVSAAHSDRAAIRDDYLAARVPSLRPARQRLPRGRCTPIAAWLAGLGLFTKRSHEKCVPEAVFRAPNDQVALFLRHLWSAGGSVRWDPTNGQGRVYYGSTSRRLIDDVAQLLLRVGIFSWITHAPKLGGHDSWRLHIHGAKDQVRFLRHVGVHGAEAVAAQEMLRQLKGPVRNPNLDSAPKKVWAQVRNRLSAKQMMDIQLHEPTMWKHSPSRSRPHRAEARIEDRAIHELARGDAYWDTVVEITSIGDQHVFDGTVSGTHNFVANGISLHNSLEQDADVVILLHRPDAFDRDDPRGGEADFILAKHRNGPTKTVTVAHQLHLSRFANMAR

Protein RecA = target: T2, Protein RecA (Mycobacterium tuberculosis, UniProt P9WHJ3); assay: Fluorescence Cell-Free Homogeneous Dose Retest to Identify Inhibitors of RecA-Intein Splicing Activity. [Related pubchem assays (depositor defined):AID2097, AID2223, AID489010, AID492950]; format: functional
T2 sequence (P9WHJ3 whole entry): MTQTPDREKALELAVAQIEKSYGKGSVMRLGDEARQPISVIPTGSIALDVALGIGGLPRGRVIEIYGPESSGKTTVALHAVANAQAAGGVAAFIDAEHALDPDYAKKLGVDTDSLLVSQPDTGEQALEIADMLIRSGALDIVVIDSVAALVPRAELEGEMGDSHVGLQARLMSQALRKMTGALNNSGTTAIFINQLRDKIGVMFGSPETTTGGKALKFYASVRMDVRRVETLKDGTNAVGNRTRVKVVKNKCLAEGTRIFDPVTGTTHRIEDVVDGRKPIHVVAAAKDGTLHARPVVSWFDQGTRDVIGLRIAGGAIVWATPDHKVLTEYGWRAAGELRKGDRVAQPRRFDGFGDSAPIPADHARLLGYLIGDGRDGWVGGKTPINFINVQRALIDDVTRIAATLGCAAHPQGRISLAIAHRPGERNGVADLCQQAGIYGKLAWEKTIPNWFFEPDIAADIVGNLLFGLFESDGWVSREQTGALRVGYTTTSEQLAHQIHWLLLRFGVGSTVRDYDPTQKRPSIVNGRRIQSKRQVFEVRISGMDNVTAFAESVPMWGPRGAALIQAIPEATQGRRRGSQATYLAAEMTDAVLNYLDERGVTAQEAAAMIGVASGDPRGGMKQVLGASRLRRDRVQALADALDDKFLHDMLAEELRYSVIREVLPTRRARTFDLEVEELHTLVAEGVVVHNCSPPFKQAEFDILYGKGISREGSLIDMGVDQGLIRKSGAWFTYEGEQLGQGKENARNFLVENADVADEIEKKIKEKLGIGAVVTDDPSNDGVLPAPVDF

[29] = target: T3, Sentrin-specific protease 8 (Homo sapiens, UniProt Q96LD8); format: functional
T3 sequence (Q96LD8 whole entry): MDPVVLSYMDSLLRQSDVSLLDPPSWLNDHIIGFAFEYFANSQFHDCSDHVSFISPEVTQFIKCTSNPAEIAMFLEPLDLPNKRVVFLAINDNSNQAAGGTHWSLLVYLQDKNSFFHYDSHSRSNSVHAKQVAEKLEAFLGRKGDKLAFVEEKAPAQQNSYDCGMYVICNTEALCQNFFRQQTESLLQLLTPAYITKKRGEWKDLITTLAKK

[30] = target: T3, Sentrin-specific protease 8; format: functional; remark: listed apart in the source
Caspase-3 = target: T4, Caspase-3 (Homo sapiens, UniProt P42574); assay: Dose-response confirmation of uHTS inhibitor hits of Sentrin-Specific Protease 8 in a Caspase-3 Fluorescence assay.; format: functional
T4 sequence (P42574 whole entry): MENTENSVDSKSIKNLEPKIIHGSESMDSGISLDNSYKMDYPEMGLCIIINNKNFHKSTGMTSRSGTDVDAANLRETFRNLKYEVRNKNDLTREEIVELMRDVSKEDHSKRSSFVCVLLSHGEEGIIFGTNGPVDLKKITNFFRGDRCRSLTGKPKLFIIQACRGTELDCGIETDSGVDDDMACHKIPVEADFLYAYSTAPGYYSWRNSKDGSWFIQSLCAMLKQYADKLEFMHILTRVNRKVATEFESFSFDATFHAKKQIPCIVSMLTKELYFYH

Peroxisome proliferator-activated receptor gamma/Nuclear receptor corepressor 2, sequence (P37231 whole entry): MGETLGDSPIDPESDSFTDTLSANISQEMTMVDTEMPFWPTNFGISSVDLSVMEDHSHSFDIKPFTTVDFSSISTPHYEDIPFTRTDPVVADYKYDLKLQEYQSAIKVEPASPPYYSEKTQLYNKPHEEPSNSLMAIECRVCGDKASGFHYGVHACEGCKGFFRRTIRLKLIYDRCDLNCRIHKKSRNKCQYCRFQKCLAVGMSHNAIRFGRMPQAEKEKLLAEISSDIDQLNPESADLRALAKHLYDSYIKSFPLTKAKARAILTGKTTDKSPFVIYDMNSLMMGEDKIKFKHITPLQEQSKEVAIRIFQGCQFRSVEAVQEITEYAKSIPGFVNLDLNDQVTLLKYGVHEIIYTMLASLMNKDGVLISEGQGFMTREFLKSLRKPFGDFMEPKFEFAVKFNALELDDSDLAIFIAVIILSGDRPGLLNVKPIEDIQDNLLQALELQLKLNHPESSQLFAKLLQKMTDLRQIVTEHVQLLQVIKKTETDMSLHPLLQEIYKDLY
Peroxisome proliferator-activated receptor gamma/Nuclear receptor corepressor 2, sequence (Q9Y618 whole entry): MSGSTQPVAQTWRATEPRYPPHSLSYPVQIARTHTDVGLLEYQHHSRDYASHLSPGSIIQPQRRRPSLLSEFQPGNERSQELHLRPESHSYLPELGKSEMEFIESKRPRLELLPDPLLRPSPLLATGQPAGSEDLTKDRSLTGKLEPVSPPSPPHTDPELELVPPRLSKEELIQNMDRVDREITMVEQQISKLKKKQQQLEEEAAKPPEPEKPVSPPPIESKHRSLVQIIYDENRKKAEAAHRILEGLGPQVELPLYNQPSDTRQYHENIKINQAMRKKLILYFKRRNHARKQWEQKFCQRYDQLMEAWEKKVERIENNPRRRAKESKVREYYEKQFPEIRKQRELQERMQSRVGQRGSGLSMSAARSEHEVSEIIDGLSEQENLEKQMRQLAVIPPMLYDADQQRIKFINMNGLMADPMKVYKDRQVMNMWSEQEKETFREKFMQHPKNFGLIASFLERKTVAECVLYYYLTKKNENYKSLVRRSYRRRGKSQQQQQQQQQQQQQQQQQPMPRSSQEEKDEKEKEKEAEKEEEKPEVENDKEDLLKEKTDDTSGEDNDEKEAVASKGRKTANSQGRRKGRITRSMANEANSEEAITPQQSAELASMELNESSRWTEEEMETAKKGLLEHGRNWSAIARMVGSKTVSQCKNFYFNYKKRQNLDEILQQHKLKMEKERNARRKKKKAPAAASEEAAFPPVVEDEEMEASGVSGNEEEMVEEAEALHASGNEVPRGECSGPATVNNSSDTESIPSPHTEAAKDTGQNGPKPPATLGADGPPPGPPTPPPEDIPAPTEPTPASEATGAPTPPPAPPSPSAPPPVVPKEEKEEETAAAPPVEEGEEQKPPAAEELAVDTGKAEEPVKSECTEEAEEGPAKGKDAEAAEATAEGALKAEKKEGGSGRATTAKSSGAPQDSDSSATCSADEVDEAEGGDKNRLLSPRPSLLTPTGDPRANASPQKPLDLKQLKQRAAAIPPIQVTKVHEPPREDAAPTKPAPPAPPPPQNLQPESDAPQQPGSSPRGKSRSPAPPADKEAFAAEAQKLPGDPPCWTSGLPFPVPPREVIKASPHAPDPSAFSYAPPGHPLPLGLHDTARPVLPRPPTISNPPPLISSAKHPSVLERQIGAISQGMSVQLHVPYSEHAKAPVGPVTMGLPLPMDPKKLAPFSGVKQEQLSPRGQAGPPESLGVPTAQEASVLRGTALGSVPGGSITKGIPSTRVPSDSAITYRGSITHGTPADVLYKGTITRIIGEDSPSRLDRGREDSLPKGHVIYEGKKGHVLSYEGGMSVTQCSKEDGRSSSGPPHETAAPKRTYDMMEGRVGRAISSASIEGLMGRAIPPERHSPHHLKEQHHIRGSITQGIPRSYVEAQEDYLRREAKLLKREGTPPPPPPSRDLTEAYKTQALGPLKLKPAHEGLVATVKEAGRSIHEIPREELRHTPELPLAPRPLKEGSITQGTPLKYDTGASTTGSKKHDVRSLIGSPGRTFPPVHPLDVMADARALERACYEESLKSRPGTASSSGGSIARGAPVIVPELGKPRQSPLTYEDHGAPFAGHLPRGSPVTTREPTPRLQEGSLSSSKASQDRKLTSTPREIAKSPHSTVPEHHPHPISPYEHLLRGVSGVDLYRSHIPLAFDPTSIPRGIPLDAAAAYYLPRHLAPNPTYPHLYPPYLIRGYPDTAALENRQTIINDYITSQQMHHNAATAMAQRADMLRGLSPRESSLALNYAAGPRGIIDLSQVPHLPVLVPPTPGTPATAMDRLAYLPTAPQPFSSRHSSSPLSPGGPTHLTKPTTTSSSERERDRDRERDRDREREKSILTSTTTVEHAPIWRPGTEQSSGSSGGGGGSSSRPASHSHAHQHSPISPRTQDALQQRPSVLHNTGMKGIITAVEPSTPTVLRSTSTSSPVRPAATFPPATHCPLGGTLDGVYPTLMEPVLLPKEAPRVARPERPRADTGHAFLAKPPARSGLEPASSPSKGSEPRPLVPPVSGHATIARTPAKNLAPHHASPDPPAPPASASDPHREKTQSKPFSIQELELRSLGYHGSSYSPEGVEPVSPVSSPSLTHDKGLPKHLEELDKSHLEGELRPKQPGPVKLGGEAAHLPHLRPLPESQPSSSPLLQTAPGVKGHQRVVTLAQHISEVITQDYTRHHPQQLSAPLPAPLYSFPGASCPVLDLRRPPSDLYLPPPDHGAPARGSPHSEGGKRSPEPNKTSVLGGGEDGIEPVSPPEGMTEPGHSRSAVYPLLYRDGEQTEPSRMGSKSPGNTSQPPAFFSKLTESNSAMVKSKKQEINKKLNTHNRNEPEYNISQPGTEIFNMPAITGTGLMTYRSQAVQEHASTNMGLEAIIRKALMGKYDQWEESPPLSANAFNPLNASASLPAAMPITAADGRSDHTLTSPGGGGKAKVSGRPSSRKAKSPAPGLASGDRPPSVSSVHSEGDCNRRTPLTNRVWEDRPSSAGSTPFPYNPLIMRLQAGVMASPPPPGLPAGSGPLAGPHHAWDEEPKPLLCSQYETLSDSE
Dual specificity protein phosphatase 6, sequence (Q64346 whole entry): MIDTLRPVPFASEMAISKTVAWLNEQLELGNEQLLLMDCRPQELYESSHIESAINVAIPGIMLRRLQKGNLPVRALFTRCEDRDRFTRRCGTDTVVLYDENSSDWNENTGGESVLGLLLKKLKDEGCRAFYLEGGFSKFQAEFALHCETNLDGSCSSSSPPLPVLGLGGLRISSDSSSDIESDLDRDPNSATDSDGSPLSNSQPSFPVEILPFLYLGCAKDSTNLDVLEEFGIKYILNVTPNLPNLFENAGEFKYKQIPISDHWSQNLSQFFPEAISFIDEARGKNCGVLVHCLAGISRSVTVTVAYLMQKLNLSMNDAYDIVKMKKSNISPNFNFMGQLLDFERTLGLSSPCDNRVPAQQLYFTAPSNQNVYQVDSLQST
Photoreceptor-specific nuclear receptor, sequence (Q9Y5X4 whole entry): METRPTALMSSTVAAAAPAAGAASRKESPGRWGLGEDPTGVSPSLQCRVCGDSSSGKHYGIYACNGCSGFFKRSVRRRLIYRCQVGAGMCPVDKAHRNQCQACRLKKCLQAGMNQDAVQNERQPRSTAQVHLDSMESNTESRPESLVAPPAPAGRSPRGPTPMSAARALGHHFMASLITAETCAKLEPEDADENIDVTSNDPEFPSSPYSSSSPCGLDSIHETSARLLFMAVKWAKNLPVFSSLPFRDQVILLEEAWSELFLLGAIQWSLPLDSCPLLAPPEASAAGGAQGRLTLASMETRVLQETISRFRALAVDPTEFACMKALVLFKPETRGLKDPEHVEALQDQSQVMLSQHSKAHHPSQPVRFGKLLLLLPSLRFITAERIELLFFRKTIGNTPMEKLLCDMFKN
5-hydroxytryptamine receptor 1A, sequence (P08908 whole entry): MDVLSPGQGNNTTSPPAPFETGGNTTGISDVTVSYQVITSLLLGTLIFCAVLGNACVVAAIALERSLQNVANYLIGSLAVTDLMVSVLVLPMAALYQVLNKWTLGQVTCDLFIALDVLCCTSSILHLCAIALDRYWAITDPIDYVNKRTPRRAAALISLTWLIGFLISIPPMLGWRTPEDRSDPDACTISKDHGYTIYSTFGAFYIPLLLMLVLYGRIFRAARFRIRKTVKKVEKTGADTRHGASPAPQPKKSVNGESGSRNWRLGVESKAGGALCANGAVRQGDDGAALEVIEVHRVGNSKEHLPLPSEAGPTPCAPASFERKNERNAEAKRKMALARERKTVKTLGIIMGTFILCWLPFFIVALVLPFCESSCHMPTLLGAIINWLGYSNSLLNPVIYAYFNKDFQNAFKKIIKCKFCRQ
Nonstructural protein 1, sequence (Q194T2 whole entry): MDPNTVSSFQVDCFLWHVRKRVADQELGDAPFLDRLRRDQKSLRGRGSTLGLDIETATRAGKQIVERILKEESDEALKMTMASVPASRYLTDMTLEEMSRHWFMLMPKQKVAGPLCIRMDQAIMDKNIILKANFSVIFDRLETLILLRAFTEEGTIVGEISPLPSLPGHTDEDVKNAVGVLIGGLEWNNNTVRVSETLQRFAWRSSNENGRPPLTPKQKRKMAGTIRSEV
Estrogen receptor beta, sequence (Q92731 whole entry): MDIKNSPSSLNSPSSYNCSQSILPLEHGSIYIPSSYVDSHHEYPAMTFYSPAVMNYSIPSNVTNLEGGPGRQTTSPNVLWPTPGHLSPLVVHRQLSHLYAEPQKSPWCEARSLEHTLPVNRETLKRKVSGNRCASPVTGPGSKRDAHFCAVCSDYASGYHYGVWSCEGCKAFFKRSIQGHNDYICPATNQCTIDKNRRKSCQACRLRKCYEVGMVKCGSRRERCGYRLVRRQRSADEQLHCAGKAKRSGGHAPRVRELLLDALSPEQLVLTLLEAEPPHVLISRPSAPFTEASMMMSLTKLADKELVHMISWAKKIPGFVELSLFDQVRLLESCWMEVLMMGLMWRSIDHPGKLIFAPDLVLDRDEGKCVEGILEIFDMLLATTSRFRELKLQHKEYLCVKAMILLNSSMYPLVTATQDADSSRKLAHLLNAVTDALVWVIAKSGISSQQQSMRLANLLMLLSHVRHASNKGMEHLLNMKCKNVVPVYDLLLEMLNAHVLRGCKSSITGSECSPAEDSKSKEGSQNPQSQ

OCCCNc1cc(-c2ccnc(Nc3cccc(Cl)c3)n2)ccn1
EC50 [1]: 0.269 µM (inconclusive) | EC50 [2]: 0.074 µM (active) | EC50 (cells): 0.076 µM (active) | EC50 [3]: < 0.1 µM (active) | CC50 (Vero [4]): 0.05 µM (active) | EC50 [5]: < 0.1 µM (active) | EC50 [6]: 0.666 µM (active) | CC50 [7]: < 0.08 µM (active) | EC50 [8]: 0.182 µM (active) | IC50 (Jurkat): < 0.16 µM (active) | AC50 [9]: 0.377 µM (active) | IC50 [10]: 35.3 µM (inactive) | IC50 (Vero [11]): > 25 µM (active) | AC50 [12]: 0.013 µM (active) | AC50 [13]: < 0.26 µM (active) | AC50 [14]: 0.375 µM (active)

CSc1nc(N(CCO)CCO)c2sc3nc(-c4ccco4)c4c(c3c2n1)CCC4
EC50 [15]: 12.6 µM (active) | EC50 [16]: 5.95 µM (active) | IC50 (Estrogen receptor beta): > 50 µM (not active) | IC50 [17]: > 10 µM (not active) | IC50 [18]: > 20 µM (inactive) | IC50 (Protein Tat): 57.3 µM (inconclusive) | CC50 [19]: > 40 µM (active) | IC50 [20]: > 34.6 µM (active)

CCCCN(C)CCCNC(=O)Cn1c(=O)sc2ccccc21
EC50 [21]: > 50 µM (not active)

Cc1ccc(S(=O)(=O)NC(=O)Nc2ccc(N(C)C)cc2)cc1
EC50 [22]: 7.5 µM (active) | EC50 [23]: 13 µM (active) | EC50 (H4): 1.97 µM (active) | EC50 [24]: 1.39 µM (active) | IC50 [25]: 0.503 µM (active) | IC50 [26]: 0.748 µM (active) | EC50 [27]: > 60 µM (not active) | IC50 (Nonstructural protein 1): 44.1 µM (active) | AC50 [28]: > 380 µM (inactive) | EC50 (Protein RecA): 5.18 µM (active) | IC50 [29]: 7.83 µM (active) | IC50 [30]: 7.02 µM (active) | IC50 (Caspase-3): 18.1 µM (active)
